Broadly, the ED50 is the midpoint of the dose-response relation. A high value points to a need for a large dose. As usually defined, the LD50 is the dose at which mortality reaches 50%. A high value points to lower toxicity.

Our source for the ED50 and LD50 values is ChEMBL document CHEMBL1123212 (J Med Chem, 1986).

Series [1] concerns Rattus norvegicus. The series can be described thus: Compound was tested for anti-dopamine activity in vivo by its ability to inhibit apomorphine induced hyperactivity in rat. The format is functional.
Series [2] deals with Rattus norvegicus. Description: Compound was tested for anti-dopamine activity in vivo by its ability to inhibit apomorphine induced stereotypy in rat. In kind it is functional.
Another series is described as follows: in vivo. Conditions: rat, ip.
The species named for series [3] is Rattus norvegicus. The series can be described thus: animal or person.
Description: In vivo inhibition of apomorphine induced hyperactivity in rats.
For series [4], the species on record is Rattus norvegicus. Description: animal or person. This is another data set of the same source.
Description: In vivo inhibition of apomorphine induced stereotypy in rats.

Description for in vivo: Compound was tested for its acute toxicity in rat after ip administration

Take `O=C(CCCN1CCC(O)(c2ccc(Cl)cc2)CC1)c1ccc(F)cc1` [HALOPERIDOL]: the ED50 with Rattus norvegicus [1] came to 0.29 µmol/kg; in the series on Rattus norvegicus [2] it was 0.27 µmol/kg. This compound also returned an LD50 in the series “in vivo” of 93 µmol/kg.
Consider `CCc1cc(CC)c(OC)c(C(=O)NC[C@@H]2CCCN2CC)c1O`, for which the LD50 in the series “in vivo” was 530 µmol/kg. Besides, the results for the ED50 in the series filed under Rattus norvegicus [3] and in the series filed under Rattus norvegicus [4] were 0.076 µmol/kg and 0.46 µmol/kg, respectively.
Turning to `CCc1cc(Br)c(O)c(C(=O)NC[C@@H]2CCCN2CC)c1OC`, the ED50 worked out at 0.87 µmol/kg in the series filed under Rattus norvegicus [3] and 1.45 µmol/kg in the series listed under Rattus norvegicus [4].
For `CCc1cc(Br)c(OC)c(C(=O)NC[C@@H]2CCCN2CC)c1O`, the LD50 in the series “in vivo” was 320 µmol/kg. The values for the ED50 in the series listed under Rattus norvegicus [3] and in the series filed under Rattus norvegicus [4] were 0.085 µmol/kg and 0.47 µmol/kg, respectively.
On to `CCN1CCC[C@H]1CNC(=O)c1cc(Br)cc(Br)c1OC`, for which the figures for the ED50 in the series filed under Rattus norvegicus [3] and in the series filed under Rattus norvegicus [4] were 0.66 µmol/kg and 2.69 µmol/kg, respectively.
The compound `CCc1cc(Cl)c(OC)c(C(=O)NC[C@@H]2CCCN2CC)c1O` [ETICLOPRIDE] gave an LD50 in the series “in vivo” of 330 µmol/kg. Besides, the ED50 in the series filed under Rattus norvegicus [3] was found to be 0.032 µmol/kg; in the series filed under Rattus norvegicus [4], 0.19 µmol/kg.
For the compound `CCN1CCC[C@H]1CNC(=O)c1c(O)c(C)cc(C)c1OC`, the ED50 in the series listed under Rattus norvegicus [3] came to 1.86 µmol/kg; in the series listed under Rattus norvegicus [4], 3.1 µmol/kg.
Compound `CCN1CCC[C@H]1CNC(=O)c1c(O)c(Cl)cc(Cl)c1OC` [RACLOPRIDE] displayed an LD50 in “in vivo” of 660 µmol/kg. The ED50 in the series filed under Rattus norvegicus [3] is 0.13 µmol/kg; in the series listed under Rattus norvegicus [4], 1.7 µmol/kg.
In the case of `CCN1CCC[C@H]1CNC(=O)c1c(O)c(C)cc(Cl)c1OC`, the ED50 in the series listed under Rattus norvegicus [3] was 0.74 µmol/kg; in the series filed under Rattus norvegicus [4], 1.32 µmol/kg.
Compound `CCc1ccc(OC)c(C(=O)NC[C@@H]2CCCN2CC)c1O` registered an LD50 in the series “in vivo” of 370 µmol/kg. Moreover, the ED50 in the series listed under Rattus norvegicus [3] was 0.12 µmol/kg; in the series filed under Rattus norvegicus [4] it was 0.28 µmol/kg.
For `CCc1cc(Cl)c(O)c(C(=O)NC[C@@H]2CCCN2CC)c1OC`, the ED50 stood at 2.5 µmol/kg in the series listed under Rattus norvegicus [3] and 1.51 µmol/kg in the series listed under Rattus norvegicus [4].
On the same counts, the results for `CCN1CCC[C@@H]1CNC(=O)c1c(O)c(Cl)cc(Cl)c1OC` are 1.07 µmol/kg and 32 µmol/kg.
The matching figures for `CCN1CCC[C@H]1CNC(=O)c1c(O)c(Br)cc(Cl)c1OC`: 0.95 µmol/kg and 1.35 µmol/kg.
The matching figures for `CCN1CCC[C@H]1CNC(=O)c1c(O)c(Br)cc(F)c1OC`: 0.16 µmol/kg and 0.42 µmol/kg.
For `CCc1cc(F)c(OC)c(C(=O)NC[C@@H]2CCCN2CC)c1O`, the figures for the 50% effective dose (ED50) in the series listed under Rattus norvegicus [3] and in the series filed under Rattus norvegicus [4] were 0.065 µmol/kg and 0.31 µmol/kg, respectively.
The matching figures for `CCCc1cc(Cl)c(OC)c(C(=O)NC[C@@H]2CCCN2CC)c1O`: 0.1 µmol/kg and 0.35 µmol/kg.
`CCN1CCC[C@H]1CNC(=O)c1c(O)c(Br)cc(Br)c1OC` came in with an LD50 in “in vivo” of 450 µmol/kg. In addition, the ED50 in the series filed under Rattus norvegicus [3] was 0.65 µmol/kg; in the series filed under Rattus norvegicus [4] it was 1.48 µmol/kg.
On to `CCN1CCC[C@H]1CNC(=O)c1cc(Br)cc(Br)c1O`, for which the ED50 in the series listed under Rattus norvegicus [3] was 28 µmol/kg; in the series filed under Rattus norvegicus [4], more than 40 µmol/kg.
